According to the supplement of paper PMC9663587:

Assays:
Paclitaxel = compound: CC(=O)O[C@H]1C(=O)[C@@]2(C)[C@H]([C@H](OC(=O)c3ccccc3)[C@]3(O)C[C@H](OC(=O)[C@H](O)[C@@H](NC(=O)c4ccccc4)c4ccccc4)C(C)=C1C3(C)C)[C@]1(OC(C)=O)CO[C@@H]1C[C@@H]2O [Paclitaxel]
BSJ-03-123 [1] = compound: T1, CC(=O)c1c(C)c2cnc(Nc3ccc(N4CCN(CCOCCOCCOCCNC(=O)COc5cccc6c5C(=O)N(C5CCC(=O)NC5=O)C6=O)CC4)cn3)nc2n(C2CCCC2)c1=O [BSJ-03-123]
INK128/MLN0128 = compound: CC(C)n1nc(-c2ccc3oc(N)nc3c2)c2c(N)ncnc21 [INK128/MLN0128]
[2] = compound: CCN1CCN(Cc2ccc(Nc3ncc(F)c(-c4cc(F)c5nc(C)n(C(C)C)c5c4)n3)nc2)CC1
Neratinib/HKI272 [3] = compound: T2, CCOc1cc2ncc(C#N)c(Nc3ccc(OCc4ccccn4)c(Cl)c3)c2cc1NC(=O)/C=C/CN(C)C [Neratinib/HKI272]
Volasertib/BI6727 = compound: CC[C@@H]1C(=O)N(C)c2cnc(Nc3ccc(C(=O)N[C@H]4CC[C@H](N5CCN(CC6CC6)CC5)CC4)cc3OC)nc2N1C(C)C [Volasertib/BI6727]
LEE011/Ribociclib [4] = compound: T3, CN(C)C(=O)c1cc2cnc(Nc3ccc(N4CCNCC4)cn3)nc2n1C1CCCC1 [LEE011/Ribociclib]
THZ531 = compound: CN(C)C/C=C/C(=O)Nc1ccc(C(=O)N2CCC[C@@H](Nc3ncc(Cl)c(-c4c[nH]c5ccccc45)n3)C2)cc1 [THZ531]
ABT-737 = compound: CN(C)CC[C@H](CSc1ccccc1)Nc1ccc(S(=O)(=O)NC(=O)c2ccc(N3CCN(Cc4ccccc4-c4ccc(Cl)cc4)CC3)cc2)cc1[N+](=O)[O-] [ABT-737]
[5] = compound: COc1ccc2c(c1)[C@]1(C[C@H]1c1ccc3c(/C=C/c4ccc(CN5C[C@@H](C)O[C@@H](C)C5)cc4)n[nH]c3c1)C(=O)N2
Pictilisib/GDC0941 = compound: CS(=O)(=O)N1CCN(Cc2cc3nc(-c4cccc5[nH]ncc45)nc(N4CCOCC4)c3s2)CC1 [Pictilisib/GDC0941]
Ceritinib/LDK378 = compound: Cc1cc(Nc2ncc(Cl)c(Nc3ccccc3S(=O)(=O)C(C)C)n2)c(OC(C)C)cc1C1CCNCC1 [Ceritinib/LDK378]
Taselisib/GDC0032 = compound: Cc1nc(-c2cn3c(n2)-c2ccc(-c4cnn(C(C)(C)C(N)=O)c4)cc2OCC3)n(C(C)C)n1 [Taselisib/GDC0032]
Tivantinib/ARQ197 = compound: O=C1NC(=O)[C@@H](c2cn3c4c(cccc24)CCC3)[C@@H]1c1c[nH]c2ccccc12 [Tivantinib/ARQ197]
YKL-5-124 = compound: C=CC(=O)Nc1ccc(C(=O)Nc2[nH]nc3c2CN(C(=O)N[C@H](CN(C)C)c2ccccc2)C3(C)C)cc1 [YKL-5-124]; assay: GR value, 72 h; higher = faster growth (1 = untreated, <0 = killing);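 also: breast cancer and non-malignant breast epithelial lines, nine half-log doses, viable cells counted by Hoechst and LIVE/DEAD dye imaging versus time-zero plates and DMSO controls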
BSJ-03-123 [6] = compound: T1, BSJ-03-123; assay: as above
[7] = compound: CCN1CCN(Cc2ccc(Nc3ncc(F)c(-c4cc(F)c5nc(C)n(C(C)C)c5c4)n3)nc2)CC1; assay: as above
Neratinib/HKI272 [8] = compound: T2, Neratinib/HKI272; assay: as above
[9] = compound: CCc1cnn2c(NCc3ccc[n+]([O-])c3)cc(N3CCCC[C@H]3CCO)nc12; assay: as above
LEE011/Ribociclib [10] = compound: T3, LEE011/Ribociclib; assay: as above
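For GR50, 72 h in this document: breast cancer and non-malignant breast epithelial cell lines, Deep Dye Drop or Dye Drop imaging, nine half-log doses, GR normalized to time-zero plates and DMSO-only controls.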

MGH312
GR50, 72 h (Paclitaxel): 0.00266 µM | GR50, 72 h (BSJ-03-123 [1]): 4.41 µM | GR50, 72 h (INK128/MLN0128): 0.00245 µM | GR50, 72 h [2]: 2.43 µM | GR50, 72 h (Neratinib/HKI272 [3]): 0.168 µM | GR50, 72 h (Volasertib/BI6727): 0.00804 µM | GR50, 72 h (LEE011/Ribociclib [4]): > 10 µM | GR50, 72 h (THZ531): 0.0332 µM | GR50, 72 h (ABT-737): 2.19 µM | GR50, 72 h [5]: 0.00114 µM | GR50, 72 h (Pictilisib/GDC0941): 0.0806 µM | GR50, 72 h (Ceritinib/LDK378): 1.23 µM | GR50, 72 h (Taselisib/GDC0032): 0.0386 µM | GR50, 72 h (Tivantinib/ARQ197): 0.379 µM | GR value (YKL-5-124; 0.001 µM): 0.624 GR | GR value (YKL-5-124; 0.003162 µM): 0.384 GR | GR value (YKL-5-124; 0.01 µM): 0.182 GR | GR value (YKL-5-124; 0.03162 µM): 0.299 GR | GR value (YKL-5-124; 0.1 µM): 0.104 GR | GR value (YKL-5-124; 0.3162 µM): 0.0051 GR | GR value (YKL-5-124; 1 µM): -0.083 GR | GR value (YKL-5-124; 3.162 µM): -0.264 GR | GR value (YKL-5-124; 10 µM): -0.924 GR | GR value (BSJ-03-123 [6]; 0.001 µM): 1.11 GR | GR value (BSJ-03-123 [6]; 0.003162 µM): 1.25 GR | GR value (BSJ-03-123 [6]; 0.01 µM): 1.02 GR | GR value (BSJ-03-123 [6]; 0.03162 µM): 1.22 GR | GR value (BSJ-03-123 [6]; 0.1 µM): 1.12 GR | GR value (BSJ-03-123 [6]; 0.3162 µM): 0.909 GR | GR value (BSJ-03-123 [6]; 1 µM): 0.827 GR | GR value (BSJ-03-123 [6]; 3.162 µM): 0.933 GR | GR value (BSJ-03-123 [6]; 10 µM): -0.91 GR | GR value ([7]; 0.001 µM): 1.06 GR | GR value ([7]; 0.003162 µM): 1.17 GR | GR value ([7]; 0.01 µM): 1.15 GR | GR value ([7]; 0.03162 µM): 1.12 GR | GR value ([7]; 0.1 µM): 0.975 GR | GR value ([7]; 0.3162 µM): 1.03 GR | GR value ([7]; 1 µM): 0.836 GR | GR value ([7]; 3.162 µM): 0.308 GR | GR value ([7]; 10 µM): -0.466 GR | GR value (Neratinib/HKI272 [8]; 0.0003162 µM): 0.953 GR | GR value (Neratinib/HKI272 [8]; 0.001 µM): 1.02 GR | GR value (Neratinib/HKI272 [8]; 0.003162 µM): 0.997 GR | GR value (Neratinib/HKI272 [8]; 0.01 µM): 0.787 GR | GR value (Neratinib/HKI272 [8]; 0.03162 µM): 0.606 GR | GR value (Neratinib/HKI272 [8]; 0.1 µM): 0.489 GR | GR value (Neratinib/HKI272 [8]; 0.3162 µM): 0.502 GR | GR value (Neratinib/HKI272 [8]; 1 µM): 0.238 GR | GR value (Neratinib/HKI272 [8]; 3.162 µM): -0.252 GR | GR value ([9]; 0.0001 µM): 0.917 GR | GR value ([9]; 0.0003162 µM): 1.1 GR | GR value ([9]; 0.001 µM): 1.09 GR | GR value ([9]; 0.003162 µM): 1.04 GR | GR value ([9]; 0.01 µM): 0.584 GR | GR value ([9]; 0.03162 µM): -0.846 GR | GR value ([9]; 0.1 µM): -0.927 GR | GR value ([9]; 0.3162 µM): -0.951 GR | GR value ([9]; 1 µM): -0.949 GR | GR value (LEE011/Ribociclib [10]; 0.001 µM): 1.21 GR | GR value (LEE011/Ribociclib [10]; 0.003162 µM): 1.13 GR | GR value (LEE011/Ribociclib [10]; 0.01 µM): 1.08 GR | GR value (LEE011/Ribociclib [10]; 0.03162 µM): 1.21 GR | GR value (LEE011/Ribociclib [10]; 0.1 µM): 0.945 GR | GR value (LEE011/Ribociclib [10]; 0.3162 µM): 0.964 GR | GR value (LEE011/Ribociclib [10]; 1 µM): 0.894 GR | GR value (LEE011/Ribociclib [10]; 3.162 µM): 0.89 GR | GR value (LEE011/Ribociclib [10]; 10 µM): 1.33 GR
